# Results from patent US10745399B2 (priority 2015, dated 2020).
# Target: human recombinant ATM (Homo sapiens (Human), UniProt Q13315)
# Assay: ATM kinase assay (IC50 ATM), TR-FRET
# Assay type: biochemical
# Conditions: 10 μM ATP, p53 substrate
# Procedure: ATM Kinase Assay—Determination of ATM Inhibition (IC50 ATM):
# The IC50 value was determined with the aid of a biochemical ATM kinase assay. The assay consists of two steps: the enzymatic reaction and the detection step. Firstly, ATM (ataxia telangiectasia mutated) protein and the test substance are incubated at different concentrations with addition of substrate protein p53 and ATP. ATM mediates the phosphorylation of p53 at several positions, including at amino acid S15. The amount of phosphorylated p53 is determined with the aid of specific antibodies and the TR-FRET technique. The enzymatic ATM assay is carried out as TR-FRET (HTRF™, Cisbio Bioassays) based 384-well assay. In the first step, purified human recombinant ATM (human ATM, full length, GenBank ID NM_000051, expressed in a mammal cell line) is incubated in assay buffer for 15 minutes with the ATM inhibitor in various concentrations and without test substance as negative or neutral control. The assay buffer comprises 25 mM HEPES pH 8.0, 10 mM Mg(CH3COO)2, 1 mM MnCl2, 0.1% BSA and 0.01% Brij® 35, 5 mM dithiothreitol (DTT). […] In the second step, purified human recombinant cmyc-labelled p53 (human p53, full length, GenBank ID BC003596, expressed in Sf21 insect cells) and ATP are added, and the reaction mixture is incubated at 22° C. for 30-35 minutes. The pharmacologically relevant assay volume is 5 μl. […] The enzymatic reaction is stopped by addition of EDTA. […] After incubation, usually for 2 hours (between 1.5 and 15 h), for signal development, the plates are analysed in a plate reader (EnVision, PerkinElmer) using TRF mode (and with laser excitation). […] The measurement data were processed by means of Genedata Screener software. IC50 determinations are carried out, in particular, by fitting a dose/action curve to the data points by means of nonlinear regression analysis.
# Sequence of human recombinant ATM (Q13315 whole entry): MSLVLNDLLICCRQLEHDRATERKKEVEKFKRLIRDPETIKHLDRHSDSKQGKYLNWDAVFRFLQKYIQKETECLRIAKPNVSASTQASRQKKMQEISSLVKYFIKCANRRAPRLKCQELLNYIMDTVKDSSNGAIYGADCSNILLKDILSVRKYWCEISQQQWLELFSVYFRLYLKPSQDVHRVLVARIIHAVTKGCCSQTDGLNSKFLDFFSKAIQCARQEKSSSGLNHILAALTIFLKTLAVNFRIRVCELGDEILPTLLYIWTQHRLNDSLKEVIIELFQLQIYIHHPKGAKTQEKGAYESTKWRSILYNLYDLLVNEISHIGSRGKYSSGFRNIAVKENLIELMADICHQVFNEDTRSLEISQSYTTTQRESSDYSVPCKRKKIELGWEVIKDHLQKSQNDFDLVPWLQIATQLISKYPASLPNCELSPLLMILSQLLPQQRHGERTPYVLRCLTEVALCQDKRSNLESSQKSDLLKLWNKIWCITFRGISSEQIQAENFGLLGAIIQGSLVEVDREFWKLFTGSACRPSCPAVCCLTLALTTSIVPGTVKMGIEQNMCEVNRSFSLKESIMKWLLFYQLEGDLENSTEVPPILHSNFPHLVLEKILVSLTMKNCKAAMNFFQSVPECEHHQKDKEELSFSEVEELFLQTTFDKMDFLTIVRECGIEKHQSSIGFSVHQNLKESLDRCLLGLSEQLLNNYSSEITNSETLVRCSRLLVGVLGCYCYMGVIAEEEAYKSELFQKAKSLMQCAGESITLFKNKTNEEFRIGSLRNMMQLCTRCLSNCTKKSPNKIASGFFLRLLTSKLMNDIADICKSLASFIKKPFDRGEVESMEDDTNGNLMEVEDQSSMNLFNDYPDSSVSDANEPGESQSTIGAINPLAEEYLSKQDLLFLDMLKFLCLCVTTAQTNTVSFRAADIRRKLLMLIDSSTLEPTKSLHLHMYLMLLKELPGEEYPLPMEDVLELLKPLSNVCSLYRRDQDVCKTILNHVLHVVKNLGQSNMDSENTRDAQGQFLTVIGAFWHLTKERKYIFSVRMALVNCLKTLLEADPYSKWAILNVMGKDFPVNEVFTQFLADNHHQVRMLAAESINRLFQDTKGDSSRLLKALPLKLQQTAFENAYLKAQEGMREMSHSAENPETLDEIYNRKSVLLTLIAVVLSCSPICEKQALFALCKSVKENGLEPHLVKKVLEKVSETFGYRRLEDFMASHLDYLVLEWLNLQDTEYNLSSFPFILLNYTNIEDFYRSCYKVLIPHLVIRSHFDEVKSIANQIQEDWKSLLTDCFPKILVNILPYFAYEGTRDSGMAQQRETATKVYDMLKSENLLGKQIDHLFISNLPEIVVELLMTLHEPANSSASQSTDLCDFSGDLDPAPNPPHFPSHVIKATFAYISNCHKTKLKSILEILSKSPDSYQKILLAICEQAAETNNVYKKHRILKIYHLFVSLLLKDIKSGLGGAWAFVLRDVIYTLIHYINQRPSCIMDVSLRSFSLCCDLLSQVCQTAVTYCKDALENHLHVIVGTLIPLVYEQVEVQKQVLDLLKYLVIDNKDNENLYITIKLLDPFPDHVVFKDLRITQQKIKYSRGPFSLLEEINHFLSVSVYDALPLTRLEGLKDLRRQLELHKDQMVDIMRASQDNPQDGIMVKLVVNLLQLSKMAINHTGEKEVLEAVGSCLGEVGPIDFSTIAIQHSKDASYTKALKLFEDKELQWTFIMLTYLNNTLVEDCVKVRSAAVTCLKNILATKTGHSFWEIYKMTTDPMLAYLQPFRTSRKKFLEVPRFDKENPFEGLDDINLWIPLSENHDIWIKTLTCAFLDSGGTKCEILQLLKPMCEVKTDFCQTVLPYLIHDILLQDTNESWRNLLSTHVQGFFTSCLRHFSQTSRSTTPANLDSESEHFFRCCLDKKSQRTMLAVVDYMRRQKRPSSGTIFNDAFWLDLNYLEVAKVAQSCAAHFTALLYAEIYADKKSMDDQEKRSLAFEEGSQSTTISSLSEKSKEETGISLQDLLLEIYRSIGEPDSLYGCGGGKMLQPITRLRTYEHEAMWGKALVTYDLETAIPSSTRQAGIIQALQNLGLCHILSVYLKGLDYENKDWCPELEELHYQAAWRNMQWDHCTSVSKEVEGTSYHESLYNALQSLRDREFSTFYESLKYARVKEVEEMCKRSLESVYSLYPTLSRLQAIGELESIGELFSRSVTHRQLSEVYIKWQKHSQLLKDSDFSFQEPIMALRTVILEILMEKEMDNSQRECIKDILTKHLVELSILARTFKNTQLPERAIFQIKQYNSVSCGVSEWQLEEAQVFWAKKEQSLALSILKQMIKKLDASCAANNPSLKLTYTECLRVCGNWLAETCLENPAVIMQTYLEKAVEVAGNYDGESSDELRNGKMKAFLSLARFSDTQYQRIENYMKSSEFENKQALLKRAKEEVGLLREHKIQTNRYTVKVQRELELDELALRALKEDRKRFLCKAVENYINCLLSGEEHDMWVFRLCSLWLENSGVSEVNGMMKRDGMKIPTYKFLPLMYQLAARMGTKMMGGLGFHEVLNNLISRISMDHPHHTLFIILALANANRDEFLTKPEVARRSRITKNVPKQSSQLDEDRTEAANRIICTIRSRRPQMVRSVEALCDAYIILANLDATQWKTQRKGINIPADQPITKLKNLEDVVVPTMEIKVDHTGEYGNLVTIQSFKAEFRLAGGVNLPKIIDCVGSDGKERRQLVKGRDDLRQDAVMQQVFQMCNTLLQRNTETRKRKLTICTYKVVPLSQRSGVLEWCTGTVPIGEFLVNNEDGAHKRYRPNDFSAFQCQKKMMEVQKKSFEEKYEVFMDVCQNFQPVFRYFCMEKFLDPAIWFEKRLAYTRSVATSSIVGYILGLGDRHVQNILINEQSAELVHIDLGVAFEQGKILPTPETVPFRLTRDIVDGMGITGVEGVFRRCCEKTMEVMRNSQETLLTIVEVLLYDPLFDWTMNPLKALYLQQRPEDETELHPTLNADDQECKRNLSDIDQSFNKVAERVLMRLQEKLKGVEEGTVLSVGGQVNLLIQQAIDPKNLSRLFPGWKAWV
row,IC50,Compound
1,< 1 nM,"COc1cc2ncc3c(c2cc1-c1cnn(C)c1)n(-c1ncc(F)cc1F)c(=O)n3C [Compound Example 1, 1-(3,5-Difluoropyridin-2-yl)-7-methoxy-3-methyl-8-(1-methyl-1H-pyrazol-4-yl)-1,3-dihydroimidazo[4,5-c] quinolin-2-one]"
2,< 1 nM,"COc1cc2ncc3c(c2cc1-c1cnn(C)c1)n(-c1ncc(OCCO)cc1F)c(=O)n3C [compound 67, 1-[3-Fluoro-5-(2-hydroxy-ethoxy)-2-pyridyl]-7-methoxy-3-methyl-8-(1-methylpyrazol-4-yl)imidazo-[4,5-c]quinolin-2-one]"
3,< 50 nM,"COc1cc2ncc3c(c2cc1-c1cnn(C)n1)n(-c1c(C)cncc1F)c(=O)n3C [compound 103, 1-(3-Fluoro-5-methylpyridin-4-yl)-7-methoxy-3-methyl-8-(2-methyl-2H-1,2,3-triazol-4-yl)-1,3-dihydroimidazo-[4,5-c]quinolin-2-one]"

# Test system: CHK2 phosphorylation (phospho-Thr68) in HCT116 cells
# Assay: Cellular pCHK2 assay, bleomycin-induced phosphorylation of CHK2 (phospho-Thr68), immunofluorescence high content
# Assay type: cell-based
# Conditions: Homo sapiens, HCT-116; HCT116 cells, 10 μM bleomycin, 4 h; read-out: IC50 (pCHK2)
# Text: For the identification of substances which inhibit the phosphorylation of the protein kinase CHK2 at the amino acid threonine 68, an immunofluorescence-based “high content” analysis assay was used in HCT116 cells.
# In vitro cell-based immunofluorescence assay for the identification of inhibitors of bleomycin-induced phosphorylation of CHK2 (phospho-Thr68) in the human colon carcinoma cell line HCT116:
# HCT116 cells are sown out in a defined cell density in 384-well plates in culture medium (DMEM high glucose, 2 mM GlutaMax, 1 mM Na pyruvate, 10% FCS) and incubated overnight at 37° C. and 10% of CO2. On the following day, the test substances are added in a defined concentration range (1 nM to 30 μM) in combination with 10 μM bleomycin, where the concentration of the solvent DMSO is kept constant at 0.5%. After incubation for four hours at 37° C. and 10% of CO2, the cells are fixed (5 min, 4% formaldehyde in PBS), permeabilised (10 min, 0.2% Triton X-100 in PBS) and, after blocking of nonspecific binding sites (10% goat serum, 1% BSA in PBS), incubated overnight at 4° C. with a specific anti-pCHK2 antibody (cell signalling #2661). pCHK2 (Thr68) is determined using an Alexa488-labelled secondary anti-rabbit IgG antibody. Parallel staining of DNA with propidium iodide enables determination of the cell count. The pCHK2 signal is detected using a high-content imager (Molecular Devices IMX Ultra) and automatic image analysis using the MetaXpress software belonging to the instrument. The number of cell nuclei which have a pCHK2 signal above a defined background is determined.
row,Compound,IC50
1,"COc1ccc(-c2cc3c(cc2OC)ncc2c3n(-c3c(F)cncc3OC)c(=O)n2C)cn1 [compound 137, 1-(3-Fluoro-5-methoxy-pyridin-4-yl)-7-methoxy-8-(6-methoxypyridin-3-yl)-3-methyl-1,3-dihydroimidazo-[4,5-c]quinolin-2-one]",200 to 1000 nM
2,"COc1cc2ncc3c(c2cc1-c1cnn(C)n1)n(-c1c(C)cncc1F)c(=O)n3C [compound 103, 1-(3-Fluoro-5-methylpyridin-4-yl)-7-methoxy-3-methyl-8-(2-methyl-2H-1,2,3-triazol-4-yl)-1,3-dihydroimidazo-[4,5-c]quinolin-2-one]",200 to 1000 nM

# Target: mTOR (human) (Homo sapiens (Human), UniProt P42345)
# Assay: mTOR (human) radiometric kinase assay
# Assay type: biochemical
# Conditions: IC50 (ATM) at least 2000 times higher compared with IC50 (mTOR)
# Procedure: mTOR (human) was incubated with 50 mM HEPES pH 7.5, 1 mM EGTA, 0.01% Tween 20, 2 mg/ml of the substrate, 3 mM MnCl2 and [γ-^33P-ATP] (specific activity approximately 500 cpm/pmol, concentration as necessary). The reaction was initiated by addition of MgATP solution. After incubation at room temperature for 40 minutes, the reaction was stopped by addition of 3% phosphoric acid. 10 μl of the reaction solution were then transferred dropwise onto a P30 filtermat and washed three times for 5 min in 75 mM phosphoric acid and once in methanol, dried and evaluated by means of liquid scintillation counting.
row,"ratio IC50 (ATM):IC50(mTOR), selectivity with respect to mTOR",Compound
1,at least 2000 times,"COc1cc2ncc3c(c2cc1-c1cnn(C)c1)n(-c1ncc(OCS(C)(=O)=O)cc1F)c(=O)n3C [compound 201, 1-(3-Fluoro-5-methyl-sulfonylmethoxypyridin-2-yl)-7-methoxy-3-methyl-8-(1-methyl-1H-pyrazol-4-yl)-1,3-dihydroimidazo[4,5-c]-quinolin-2-one]"
2,at least 2000 times,"COc1cc2ncc3c(c2cc1-c1cn(C)nc1C)n(-c1c(F)cncc1OC(F)F)c(=O)n3C [compound 147, 1-(3-Difluoromethoxy-5-fluoropyridin-4-yl)-8-(1,3-dimethyl-1H-pyrazol-4-yl)-7-methoxy-3-methyl-1,3-dihydroimidazo[4,5-c]-quinolin-2-one]"
3,at least 2000 times,"CNC(=O)c1cnc(-n2c(=O)n(C)c3cnc4cc(OC)c(-c5cnn(C)c5)cc4c32)c(F)c1 [compound 138, 5-Fluoro-6-[7-methoxy-3-methyl-8-(1-methyl-1H-pyrazol-4-yl)-2-oxo-2,3-dihydroimidazo[4,5-c]-quinolin-1-yl]-N-methyl-nicotinamid]"
4,at least 2000 times,"CCc1cnccc1-n1c(=O)n(C)c2cnc3cc(OC)c(-c4cnn(CC)c4)cc3c21 [compound 157, 8-(1-Ethyl-1H-pyrazol-4-yl)-1-(3-ethylpyridin-4-yl)-7-methoxy-3-methyl-1,3-dihydroimidazo[4,5-c] quinolin-2-one]"

# The next lines start with the compound.
row,Compound,"ratio IC50 (ATM):IC50(mTOR), selectivity with respect to mTOR"
1,"CCc1cncc(F)c1-n1c(=O)n(C)c2cnc3cc(OC)c(-c4cn(C)nn4)cc3c21 [compound 126, 1-(3-Ethyl-5-fluoropyridin-4-yl)-7-methoxy-3-methyl-8-(1-methyl-1H-1,2,3-triazol-4-yl)-1,3-dihydroimidazo-[4,5-c]quinolin-2-one]",at least 2000 times
2,"COc1cc2ncc3c(c2cc1-c1cnn(C)c1)n(-c1ncc(OC(F)F)cc1F)c(=O)n3C [compound 114, 1-(5-Difluoromethoxy-3-fluoropyridin-2-yl)-7-methoxy-3-methyl-8-(1-methyl-1H-pyrazol-4-yl)-1,3-dihydroimidazo[4,5-c]-quinolin-2-one]",at least 2000 times
3,"COc1cc2ncc3c(c2cc1-c1cnn(C)c1)n(-c1cc2[nH]ccc2cn1)c(=O)n3C [compound 120, 7-Methoxy-3-methyl-8-(1-methyl-1H-pyrazol-4-yl)-1-(1H-pyrrolo[3,2-c]pyridin-6-yl)-1,3-dihydroimidazo-[4,5-c]quinolin-2-one]",at least 2000 times
4,"COc1cc2ncc3c(c2cc1-c1ccc2nc(C)[nH]c2c1)n(-c1c(F)cncc1OC)c(=O)n3C [compound 136, 1-(3-Fluoro-5-methoxy-pyridin-4-yl)-7-methoxy-3-methyl-8-(2-methyl-3H-benzoimidazol-5-yl)-1,3-dihydroimidazo[4,5-c]-quinolin-2-one]",at least 2000 times
5,"COc1cc2ncc3c(c2cc1-c1cc[nH]n1)n(-c1cn(C)nc1C)c(=O)n3C [compound 121, 1-(1,3-Dimethyl-1H-pyrazol-4-yl)-7-methoxy-3-methyl-8-(1H-pyrazol-3-yl)-1,3-dihydroimidazo[4,5-c]-quinolin-2-one]",at least 2000 times
6,"COc1cnc(-n2c(=O)n(C)c3cnc4cc(OC)c(-c5c[nH]nc5C)cc4c32)c(F)c1 [compound 122, 1-(3-Fluoro-5-methoxy-pyridin-2-yl)-7-methoxy-3-methyl-8-(3-methyl-1H-pyrazol-4-yl)-1,3-dihydro-imidazo[4,5-c]quinolin-2-one]",at least 2000 times

# Target: PI3K p110β/p85α (human) (Homo sapiens (Human), UniProt P42338)
# Assay: PI3K p110β/p85α (human), non-radioactive assay (HTRF)
# Assay type: biochemical
# Conditions: IC50 (ATM) at least 2000 times higher compared with IC50 (PI3Kbeta)
# Procedure: PI3K p110β/p85a (Human), Non-Radioactive Assay
# PI3K p110β/p85α (human) was incubated in an assay buffer comprising 10 μM phosphatidylinositol 4,5-bisphosphate and MgATP (concentration as necessary). The reaction was initiated by addition of MgATP solution. After an incubation time of 30 min at room temperature, the reaction was stopped by addition of a solution consisting of EDTA and biotinylated phosphatidylinositol 3,4,5-trisphosphate. Finally, the detection buffer, consisting of a europium-labelled anti-GST monoclonal antibody, a GST-labelled GRP1 PH domain and streptavidin allophycocyanin, was added. The plate was read out via homogeneous time-resolved fluorescence (HTRF) and the corresponding signals were evaluated via the formula HTRF=10000×(Em665 nm/Em620 nm).
# Sequence of PI3K p110β/p85α (human) (P42338 whole entry): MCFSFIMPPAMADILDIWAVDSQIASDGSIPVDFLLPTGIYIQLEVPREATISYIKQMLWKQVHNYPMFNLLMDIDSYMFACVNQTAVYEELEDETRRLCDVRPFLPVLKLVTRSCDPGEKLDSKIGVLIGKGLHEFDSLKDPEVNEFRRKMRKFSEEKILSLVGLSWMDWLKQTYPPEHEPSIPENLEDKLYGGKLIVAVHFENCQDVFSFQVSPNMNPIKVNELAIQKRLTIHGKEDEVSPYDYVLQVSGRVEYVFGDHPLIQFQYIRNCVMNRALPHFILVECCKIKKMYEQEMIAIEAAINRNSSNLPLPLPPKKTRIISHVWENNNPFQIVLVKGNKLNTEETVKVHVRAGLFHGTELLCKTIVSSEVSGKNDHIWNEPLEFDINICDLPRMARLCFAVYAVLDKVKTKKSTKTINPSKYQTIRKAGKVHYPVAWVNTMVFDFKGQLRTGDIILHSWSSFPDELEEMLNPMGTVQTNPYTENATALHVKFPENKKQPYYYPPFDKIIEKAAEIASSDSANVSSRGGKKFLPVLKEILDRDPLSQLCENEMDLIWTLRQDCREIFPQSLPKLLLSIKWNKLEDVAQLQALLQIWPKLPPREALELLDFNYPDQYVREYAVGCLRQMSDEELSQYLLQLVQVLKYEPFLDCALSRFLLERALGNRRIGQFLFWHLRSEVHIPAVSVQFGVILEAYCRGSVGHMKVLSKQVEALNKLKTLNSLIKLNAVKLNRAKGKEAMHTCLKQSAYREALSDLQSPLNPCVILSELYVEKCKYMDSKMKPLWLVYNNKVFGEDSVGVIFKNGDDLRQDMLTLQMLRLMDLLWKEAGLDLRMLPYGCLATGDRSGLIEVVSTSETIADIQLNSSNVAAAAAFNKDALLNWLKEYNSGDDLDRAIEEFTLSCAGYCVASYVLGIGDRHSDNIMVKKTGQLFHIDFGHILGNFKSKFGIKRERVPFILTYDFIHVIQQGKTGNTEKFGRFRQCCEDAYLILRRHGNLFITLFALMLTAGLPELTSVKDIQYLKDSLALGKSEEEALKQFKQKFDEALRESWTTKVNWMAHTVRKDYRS
# Sequence of PI3K p110β/p85α (human) (P27986 whole entry partner): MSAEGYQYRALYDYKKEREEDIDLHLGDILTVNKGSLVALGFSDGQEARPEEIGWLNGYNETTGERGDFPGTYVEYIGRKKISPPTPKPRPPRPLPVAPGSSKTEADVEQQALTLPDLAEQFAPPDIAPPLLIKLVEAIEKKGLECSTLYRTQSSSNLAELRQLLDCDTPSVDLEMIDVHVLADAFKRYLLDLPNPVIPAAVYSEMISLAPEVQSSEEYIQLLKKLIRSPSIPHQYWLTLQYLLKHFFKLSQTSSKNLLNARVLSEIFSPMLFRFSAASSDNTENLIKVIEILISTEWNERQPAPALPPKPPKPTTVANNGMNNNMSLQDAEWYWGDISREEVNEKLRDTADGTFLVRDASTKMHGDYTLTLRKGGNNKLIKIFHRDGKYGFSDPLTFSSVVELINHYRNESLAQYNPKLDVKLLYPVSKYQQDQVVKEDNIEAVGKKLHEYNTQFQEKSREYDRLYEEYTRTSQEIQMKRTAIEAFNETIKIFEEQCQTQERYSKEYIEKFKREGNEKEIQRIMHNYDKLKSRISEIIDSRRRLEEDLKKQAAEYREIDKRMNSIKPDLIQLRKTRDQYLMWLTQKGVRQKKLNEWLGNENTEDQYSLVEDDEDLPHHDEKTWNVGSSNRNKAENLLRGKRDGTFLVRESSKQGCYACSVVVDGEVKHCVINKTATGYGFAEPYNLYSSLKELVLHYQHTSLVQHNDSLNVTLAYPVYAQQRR
row,Compound,"ratio IC50 (ATM):IC50(PI3Kbeta), selectivity with respect to PI3Kbeta"
1,"COc1ccc(-c2cc3c(cc2OC)ncc2c3n(-c3c(F)cncc3OC)c(=O)n2C)cn1 [compound 137, 1-(3-Fluoro-5-methoxy-pyridin-4-yl)-7-methoxy-8-(6-methoxypyridin-3-yl)-3-methyl-1,3-dihydroimidazo-[4,5-c]quinolin-2-one]",at least 2000 times
